Source: patent US9248162B2, “Factor H for treatment of rheumatoid arthritis” (Baxter International Inc., priority 2013, dated 2016)
“And” between values parts separate entries of the source, which are not always exact repeats. Identical values can stand only once.

How the values were obtained:
[1] = system: collagen antibody-induced arthritis; test: Mouse CAIA: ankle histology scores (H & E); format: in vivo, Balb C mice; parameters: key to Score From H & E: Inflammation: 0: normal; 1: minimal infiltration of inflammatory cells in periarticular tissue; 2: mild infiltration; 3: moderate infiltration with moderate edema; 4: marked infiltration with marked edema; 5: severe infiltration with severe edema; key to Exostosis, Summary (significance) / Composite, Summary (significance) / Pannus, Summary (significance) / Cartilage, Summary (significance) / Inflammation, Summary (significance): ns: = not significant; *: = P < 0.05; **: = P < 0.01; ***: = P < 0.001; Composite Biohistopathology Score, group value / Composite Biohistopathology Score: scale not given here
Protocol: (§1) Balb C mice (n=10 per cohort) were used to determine the efficacy of Factor H (FH) during […]. The mice were treated with ArthritoMAb (anti-collagen) antibody cocktail (2 mg, i.v.) on day 1, followed 7 days later with an injection of LPS (50 μg, i.p.). On day 8, hind paw volumes were measured for each animal and distributed to various treatment groups.
(§2) Dosing with the different agents was started on day 8 as described in Table 3.
(§3) Hind paw volumes were measured on day 8, 11, 12, 13, 15, 19 and 22 (endpoint). The age at start date was 7 to 9 weeks. Body weights were measured bi-weekly to the endpoint (Table 4). At the endpoint, tissue samples were processed for histology and submitted to a pathologist for independent analysis. Sampling 1 was performed at the endpoint. The hind limbs were preserved in 10% formalin. Sampling 2 was performed at the endpoint for group 4 animals. Blood was collected by terminal cardiac puncture. The blood was processed for anti-coagulant. The kidneys were additionally preserved in formalin and followed with 70% EtOH. Samples were scored for inflammation, pannus (granulation tissue), cartilage damage, bone resorption and exostosis (Table 5).

[2] = Mouse CAIA: body weight and tolerability; format: in vivo, Balb C mice; details: mouse, in vivo
Protocol: as §1, §2, §3

[3] = system: collagen antibody-induced arthritis; test: Mouse CAIA: hind paw / footpad volume (swelling, disease burden); format: in vivo, Balb C mice; parameters: Mean Disease Burden / Total Disease Burden (AUC) / Hind Limb Volume, Mean Diff. / Total Disease, Mean Diff.: unit not given here
Protocol: as §1
(§4) Factor H was formulated in 20 mM Citrate, 150 mM NaCl, pH=6. […] Ethanercept was formulated as Enbrel™ in saline. Vehicle was formulated in 20 mM Citrate, 150 mM NaCl, pH=6. […] The dosing volume for Factor H and BX12 was 25 mL/kg (0.500 mL/20 g mouse) and adjusted accordingly for body weight.
as §2
as §3, with “The” for “Hind paw volumes were measured on day 8, 11, 12, 13, 15, 19 and 22 (endpoint). The”

[4] = system: collagen antibody-induced arthritis; test: Mouse CAIA: ankle histology scores (H & E); format: in vivo, Balb C mice; parameters: key: 0: normal; 1: minimal infiltration of inflammatory cells in periarticular tissue; 2: mild infiltration; 3: moderate infiltration with moderate edema; 4: marked infiltration with marked edema; 5: severe infiltration with severe edema; details: individual animal
Protocol: as §1, §2, §3

[5] = system: collagen antibody-induced arthritis; test: Mouse CAIA: ankle histology scores (H & E); format: in vivo, Balb C mice; parameters: key: 0: normal; 1: minimal infiltration of pannus in cartilage and subchondral bone; 2: mild infiltration; 3: moderate infiltration; 4: marked infiltration; 5: severe infiltration; details: individual animal, score 0-5, endpoint day 22, listed as Group 2
Protocol: as §1, §2, §3

[6] = system: collagen antibody-induced arthritis; test: Mouse CAIA: clinical score; format: in vivo, Balb C mice
Protocol: The mice were treated with ArthritoMAb (anti-collagen) antibody cocktail (2 mg, i.v.) on day 1, followed 7 days later with an injection of LPS (50 μg, i.p.). On day 8, hind paw volumes were measured for each animal and distributed to various treatment groups.
as §4, §2

[7] = system: kidney allografts in pre-sensitized recipients; test: Kidney allograft survival in pre-sensitized recipients, RAPA / FK506 / CFH (Example 2); format: in vivo, C57BL/6 (B6) mice
Source text: Male C3H (H-2k) and C57BL/6 (B6, H-2b) mice (25-30 g) were used to determine the efficacy of Rapamycin (RAPA) in combination with Factor H (FH) during transplant rejection. C3H mice served as skin graft and kidney donors for pre-sensitization and kidney transplantation. Male C57BL/c (B6) mice were used as recipients. The B6 recipients were pre-sensitized by transplantation of the donor skin grafts, and were subsequently transplanted with kidney allografts between 15 and 20 days after the skin transplantation. […]
Mice were monitored daily for signs of rejection and were euthanized at the end point of the experiment, which was defined as when transplants developed functional deterioration due to severe rejection or on POD60 and POD100. Renal graft function was monitored by plasma creatinine (Cr) blood urea nitrogen (BUN) and hematocrit (Hct) levels by an I-Stat potable analyzer (Abaxis). Circulating donor specific antibodies (DSAs) were determined prior to kidney transplantation and at the endpoint of study by flow cytometry.

[8] = histopathology score, graded 1-5, hind limbs at endpoint, group value
[9] = Vehicle vs agent, Dunnett's Multiple Comparison Test
[10] = Vehicle vs agent, Dunn's Multiple Comparison Test
[11] = ankle, group mean ± spread, 10 animals, score 0-5

Q: What does the source list for `C[C@@H]1C[C@H]2[C@@H]3CCC4=CC(=O)C=C[C@]4(C)[C@@]3(F)[C@@H](O)C[C@]2(C)[C@@]1(O)C(=O)CO` [Dex.]?
A: Composite Score ([1]; histopathology composite, hind limbs at endpoint, group value): 0.2 ± 0.1; Bone Resorption [1, 8]: 0 ± 0^ns; Cartilage Damage [1, 8]: 0 ± 0^ns; Exostosis [1, 8]: 0 ± 0; Inflammation [1, 8]: 0.1 ± 0.1; Pannus [1, 8]: 0.1 ± 0.1^ns

Q: For `C[C@@H]1C[C@H]2[C@@H]3CCC4=CC(=O)C=C[C@]4(C)[C@@]3(F)[C@@H](O)C[C@]2(C)[C@@]1(O)C(=O)CO` [Dexamethasone], which “Mean Body Weigh at Nadir” value [2] is on record?
A: Its value is −7.7%.

Q: And the “Hind Limb Volume, Summary (significance)” value [3, 9]?
A: The value was “*** (= P < 0.001)”.

Q: What about the “Total Disease, Summary (significance)” value [3, 9] of the same compound?
A: Its value is “*** (= P < 0.001)”.

Q: And the Hind paw volume ([3]; day 8 of study, group mean, n 10)?
A: Its Hind paw volume is 0.35 mL.

Q: And the Hind paw volume ([3]; day 8 of study, individual animal)?
A: The Hind paw volume was 0.42 mL and 0.39 mL (2×) and 0.37 mL and 0.35 mL and 0.34 mL and 0.33 mL and 0.31 mL (2×) and 0.3 mL.

Q: What about the Hind paw volume ([3]; day 11 of study, group mean, n 10) of the same compound?
A: The Hind paw volume was 0.32 mL.

Q: What about the Hind paw volume ([3]; day 11 of study, individual animal) of the same compound?
A: The Hind paw volume was 0.38 mL and 0.34 mL and 0.32 mL (3×) and 0.3 mL (3×) and 0.35 mL and 0.31 mL.

Q: What about the Hind paw volume ([3]; day 12 of study, group mean, n 10) of the same compound?
A: The Hind paw volume was 0.34 mL.

Q: And the Hind paw volume ([3]; day 12 of study, individual animal)?
A: Its Hind paw volume is 0.34 mL (4×) and 0.28 mL and 0.35 mL and 0.32 mL and 0.31 mL and 0.39 mL and 0.37 mL.

Q: And the Hind paw volume ([3]; day 13 of study, group mean, n 10)?
A: Its Hind paw volume is 0.33 mL.

Q: What about the Hind paw volume ([3]; day 13 of study, individual animal) of the same compound?
A: Its Hind paw volume is 0.31 mL (2×) and 0.3 mL (2×) and 0.36 mL and 0.35 mL (2×) and 0.33 mL and 0.38 mL and 0.29 mL.

Q: And the Hind paw volume ([3]; day 16 of study, group mean, n 10)?
A: Its Hind paw volume is 0.31 mL.

Q: And the Hind paw volume ([3]; day 16 of study, individual animal)?
A: Its Hind paw volume is 0.37 mL and 0.33 mL and 0.29 mL (3×) and 0.38 mL and 0.26 mL and 0.3 mL (2×) and 0.27 mL.

Q: And the Hind paw volume ([3]; day 19 of study, group mean, n 10)?
A: Its Hind paw volume is 0.34 mL.

Q: And the Hind paw volume ([3]; day 19 of study, individual animal)?
A: Its Hind paw volume is 0.35 mL (4×) and 0.28 mL and 0.3 mL (2×) and 0.38 mL and 0.37 mL and 0.32 mL.

Q: What about the Hind paw volume ([3]; day 22 of study, group mean, n 10) of the same compound?
A: The Hind paw volume was 0.33 mL.

Q: And the Hind paw volume ([3]; day 22 of study, individual animal)?
A: Its Hind paw volume is 0.39 mL and 0.42 mL and 0.3 mL and 0.32 mL and 0.29 mL (2×) and 0.35 mL (2×) and 0.31 mL and 0.26 mL.

Q: And the “% Disease Suppression” value ([3]; days 8-22, individual animal)?
A: The value was 95.1%.

Q: And the “Total Disease Burden (AUC)” value ([3]; days 8-22, individual animal)?
A: Its value is −0.56 and −0.05.

Q: What about the “Score From H & E: Bone Resorption” value ([4]; score 0-5, endpoint day 22) of the same compound?
A: Its value is 0.

Q: What about the “Score From H & E: Cartilage Damage” value ([4]; score 0-5, endpoint day 22) of the same compound?
A: Its value is 0.

Q: And the “Score From H & E: Periosteal/Exostotic Changes” value ([4]; score 0-5, endpoint day 22)?
A: The value was 0.

Q: What about the “Score From H & E: Pannus” value ([4]; score 0-5, endpoint day 22, listed as Group 2) of the same compound?
A: Its value is 0.

Q: And the “Score From H & E: Pannus” value [5]?
A: The value was 1.

Q: What about the “Clinical Score, Summary (significance)” value [6, 10] of the same compound?
A: Its value is “*** (= P < 0.001)”.

Q: What about the “Clinical Score, Day of Study 8, Mean” value ([6]; group mean, n=10, day 8 (start of dosing)) of the same compound?
A: The value was 4.00.

Q: And the “Clinical Score, Day of Study 11, Mean” value ([6]; group mean, n=10, day 11)?
A: The value was 0.10.

Q: What about the “Clinical Score, Day of Study 12, Mean” value ([6]; group mean, n=10, day 12) of the same compound?
A: Its value is 5.70.

Q: What about the “Clinical Score, Day of Study 13, Mean” value ([6]; group mean, n=10, day 13) of the same compound?
A: The value was 6.00.

Q: And the “Clinical Score, Day of Study 16, Mean” value ([6]; group mean, n=10, day 16 (Jul. 1, 2011))?
A: Its value is 0.00.

Q: And the “Clinical Score, Day of Study 19, Mean” value ([6]; group mean, n=10, day 19)?
A: Its value is 0.00.

Q: And the “Clinical Score, Day of Study 22, Mean” value ([6]; group mean, n=10, day 22 (endpoint))?
A: Its value is 0.00.

Q: And the “Clinical Score, Day of Study 8” value ([6]; individual animal, score 0-60, day 8 (start of dosing))?
A: The value was 5 (2×) and 10 (3×) and 0 (5×).

Q: And the “Clinical Score, Day of Study 11” value ([6]; individual animal, score 0-60, day 11)?
A: Its value is 0 (9×) and 1.

Q: And the “Clinical Score, Day of Study 12” value ([6]; individual animal, score 0-60, day 12)?
A: The value was 0 (3×) and 10 (4×) and 5 (2×) and 7.

Q: And the “Clinical Score, Day of Study 13” value ([6]; individual animal, score 0-60, day 13)?
A: The value was 0 (4×) and 10 (6×).

Q: What about the “Clinical Score, Day of Study 16” value ([6]; individual animal, score 0-60, day 16 (Jul. 1, 2011)) of the same compound?
A: Its value is 0.

Q: What about the “Clinical Score, Day of Study 19” value ([6]; individual animal, score 0-60, day 19) of the same compound?
A: Its value is 0.

Q: And the “Clinical Score, Day of Study 22” value ([6]; individual animal, score 0-60, day 22 (endpoint))?
A: The value was 0.

Q: And the “Cartilage, Summary (significance)” value [1, 10]?
A: The value was “ns”.

Q: And the “Composite, Summary (significance)” value [1, 10]?
A: The value was “* (= P < 0.05)”.

Q: And the “Exostosis, Summary (significance)” value [1, 10]?
A: The value was “** (= P < 0.01)”.

Q: What about the “Inflammation, Summary (significance)” value [1, 10] of the same compound?
A: The value was “** (= P < 0.01)”.

Q: And the “Pannus, Summary (significance)” value [1, 10]?
A: The value was “ns”.

Q: And the “Composite Biohistopathology Score, group value” ([1]; ankle, group mean ± spread, 10 animals)?
A: Its value is 0.2 ± 0.1.

Q: And the “Score From H & E: Bone Resorption, group value” [1, 11]?
A: The value was 0.0 ± 0.0.

Q: What about the “Score From H & E: Cartilage Damage, group value” [1, 11] of the same compound?
A: The value was 0.0 ± 0.0.

Q: What about the “Score From H & E: Inflammation, group value” [1, 11] of the same compound?
A: Its value is 0.1 ± 0.1.

Q: And the “Score From H & E: Pannus, group value” [1, 11]?
A: Its value is 0.1 ± 0.1.

Q: And the “Score From H & E: Periosteal/Exostotic Changes, group value” [1, 11]?
A: Its value is 0.0 ± 0.0.

Q: And the “Composite Biohistopathology Score” value ([1]; ankle, individual animal, endpoint day 22, listed as Group 2)?
A: The value was 1 (2×) and 0 (8×).

Q: What about the “Score From H & E: Inflammation” value ([1]; ankle, individual animal, score 0-5, endpoint day 22, listed as Group 2) of the same compound?
A: Its value is 0 (9×) and 1.

Q: With `CO[C@H]1C[C@@H]2CC[C@@H](C)[C@@](O)(O2)C(=O)C(=O)N2CCCC[C@H]2C(=O)O[C@H]([C@H](C)C[C@@H]2CC[C@@H](O)[C@H](OC)C2)CC(=O)[C@H](C)/C=C(\C)[C@@H](O)[C@@H](OC)C(=O)[C@H](C)C[C@H](C)/C=C/C=C/C=C/1C` [RAPA, Rapamycin] as the compound, how does the “Survival” value ([7]; individual graft survival, one value per graft) read?
A: The value was 8 days (2×) and 37 days and 10 days and 11 days and 12 days and 22 days and 14 days and 16 days and 20 days.

Q: What about the MST ([7]; mean survival time of cohort, untreated controls 8 days) of the same compound?
A: Its MST is 14 days.
